{"source": "PubChem BioAssay (NCI)", "assay_in_all_cases": "inhibition of tumour cell growth, NCI panel, 384-well format", "key": {"[1]": {"tested_on": "786-0 renal"}, "[2]": {"tested_on": "A498 renal"}, "[3]": {"tested_on": "A549 NSCLC"}, "[4]": {"tested_on": "ACHN renal"}, "[5]": {"tested_on": "BT-549 breast"}, "[6]": {"tested_on": "CAKI-1 renal"}, "[7]": {"tested_on": "CCRF-CEM leukemia"}, "[8]": {"tested_on": "COLO 205 colon"}, "[9]": {"tested_on": "EKVX NSCLC"}, "[10]": {"tested_on": "HCC-2998 colon"}, "[11]": {"tested_on": "HCT-116 colon"}, "[12]": {"tested_on": "HCT-15 colon"}, "[13]": {"tested_on": "HL-60(TB) leukemia"}, "[14]": {"tested_on": "HOP-62 NSCLC"}, "[15]": {"tested_on": "HOP-92 NSCLC"}, "[16]": {"tested_on": "HS 578T breast"}, "[17]": {"tested_on": "IGROV1 ovarian"}, "[18]": {"tested_on": "K-562 leukemia"}, "[19]": {"tested_on": "KM12 colon"}, "[20]": {"tested_on": "LOX IMVI melanoma"}, "[21]": {"tested_on": "M14 melanoma"}, "[22]": {"tested_on": "MALME-3M melanoma"}, "[23]": {"tested_on": "MDA-MB-231 breast"}, "[24]": {"tested_on": "MDA-MB-435 melanoma"}}, "note": "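GI50: concentration for 50% inhibition of growth. TGI is the concentration that stops growth completely.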"}
{"smiles": "O=S(=O)(c1ccc2c(c1)C(=NO)c1cc(S(=O)(=O)N3CCCCC3)ccc1-2)N1CCCCC1", "values": [{"measurement": "GI50", "setting": "[1]", "result": 223, "unit": "nM"}, {"measurement": "TGI", "setting": "[1]", "result": 525, "unit": "nM"}, {"measurement": "GI50", "setting": "[2]", "result": 1490, "unit": "nM"}, {"measurement": "TGI", "setting": "[2]", "result": 3100, "unit": "nM"}, {"measurement": "GI50", "setting": "[3]", "result": 171, "unit": "nM"}, {"measurement": "TGI", "setting": "[3]", "result": 315, "unit": "nM"}, {"measurement": "GI50", "setting": "[4]", "result": 17.6, "unit": "nM"}, {"measurement": "TGI", "setting": "[4]", "result": 31.6, "unit": "nM"}, {"measurement": "GI50", "setting": "[5]", "result": 179, "unit": "nM"}, {"measurement": "TGI", "setting": "[5]", "result": 319, "unit": "nM"}, {"measurement": "GI50", "setting": "[6]", "result": 19, "unit": "nM"}, {"measurement": "TGI", "setting": "[6]", "result": 35.2, "unit": "nM"}, {"measurement": "GI50", "setting": "[7]", "result": 82.5, "unit": "nM"}, {"measurement": "TGI", "setting": "[7]", "result": 205, "unit": "nM"}, {"measurement": "GI50", "setting": "[8]", "result": 184, "unit": "nM"}, {"measurement": "TGI", "setting": "[8]", "result": 325, "unit": "nM"}, {"measurement": "GI50", "setting": "[9]", "result": 115, "unit": "nM"}, {"measurement": "TGI", "setting": "[9]", "result": 241, "unit": "nM"}, {"measurement": "GI50", "setting": "[10]", "result": 166, "unit": "nM"}, {"measurement": "TGI", "setting": "[10]", "result": 303, "unit": "nM"}, {"measurement": "GI50", "setting": "[11]", "result": 173, "unit": "nM"}, {"measurement": "TGI", "setting": "[11]", "result": 316, "unit": "nM"}, {"measurement": "GI50", "setting": "[12]", "result": 186, "unit": "nM"}, {"measurement": "TGI", "setting": "[12]", "result": 333, "unit": "nM"}, {"measurement": "GI50", "setting": "[13]", "result": 16.9, "unit": "nM"}, {"measurement": "TGI", "setting": "[13]", "result": 30.9, "unit": "nM"}, {"measurement": "GI50", "setting": "[14]", "result": 97.6, "unit": "nM"}, {"measurement": "TGI", "setting": "[14]", "result": 216, "unit": "nM"}, {"measurement": "GI50", "setting": "[15]", "result": 116, "unit": "nM"}, {"measurement": "TGI", "setting": "[15]", "result": 242, "unit": "nM"}, {"measurement": "GI50", "setting": "[16]", "result": 175, "unit": "nM"}, {"measurement": "TGI", "setting": "[16]", "result": 314, "unit": "nM"}, {"measurement": "GI50", "setting": "[17]", "result": 162, "unit": "nM"}, {"measurement": "TGI", "setting": "[17]", "result": 306, "unit": "nM"}, {"measurement": "GI50", "setting": "[18]", "result": 170, "unit": "nM"}, {"measurement": "TGI", "setting": "[18]", "result": 313, "unit": "nM"}, {"measurement": "GI50", "setting": "[19]", "result": 177, "unit": "nM"}, {"measurement": "TGI", "setting": "[19]", "result": 329, "unit": "nM"}, {"measurement": "GI50", "setting": "[20]", "result": 17.2, "unit": "nM"}, {"measurement": "TGI", "setting": "[20]", "result": 32, "unit": "nM"}, {"measurement": "GI50", "setting": "[21]", "result": 170, "unit": "nM"}, {"measurement": "TGI", "setting": "[21]", "result": 308, "unit": "nM"}, {"measurement": "GI50", "setting": "[22]", "result": 179, "unit": "nM"}, {"measurement": "TGI", "setting": "[22]", "result": 321, "unit": "nM"}, {"measurement": "GI50", "setting": "[23]", "result": 139, "unit": "nM"}, {"measurement": "TGI", "setting": "[23]", "result": 270, "unit": "nM"}, {"measurement": "GI50", "setting": "[24]", "result": 183, "unit": "nM"}]}
